From US11267825B2 (AICURIS GMBH & CO. KG, priority 2017, dated 2022)
Where two headings read alike, the source gives them in different places.

Tests used:
HBV = test: Determination of HBV DNA from the supernatants of HepAD38 cells (anti-HBV activity); format: cell-based, hepatitis B virus; conditions: Hepatitis B virus, read-out: Cell Activity (EC50)
Procedure, shortened: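 EC50 values were obtained by non-linear regression of HBV DNA copy numbers measured by qPCR against pCH-9/3091 plasmid standards. The DNA came from filtered supernatants collected on day 6. Before that, tetracycline-withdrawn HepAD38 cells had been exposed to serial half-log compound dilutions, with tetracycline-treated cells as the non-producing control.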

HBV core protein = HBV core protein (UniProt P03146); format: biochemical; conditions: read-out: Assembly Activity (IC50); BODIPY-FL labelled core protein, assembly started with NaCl, read after 6 min
Sequence of HBV core protein (P03146 whole entry, looked up): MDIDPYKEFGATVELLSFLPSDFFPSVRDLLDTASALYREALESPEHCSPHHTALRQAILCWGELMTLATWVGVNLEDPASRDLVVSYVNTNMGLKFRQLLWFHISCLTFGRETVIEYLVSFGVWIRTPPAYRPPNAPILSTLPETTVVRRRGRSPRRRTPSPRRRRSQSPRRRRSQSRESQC
Method: Biochemical Capsid Assembly Assay
The screening for assembly effector activity was done based on a fluorescence quenching assay published by Zlotnick et al. (2007). The C-terminal truncated core protein containing 149 amino acids of the N-terminal assembly domain was fused to a unique cysteine residue at position 150 and was expressed in E. coli using the pET expression system (Merck Chemicals, Darmstadt). Purification of core dimer protein was performed using a sequence of size exclusion chromatography steps. In brief, the cell pellet from 1 L BL21 (DE3) Rosetta2 culture expressing the coding sequence of core protein cloned NdeI/XhoI into expression plasmid pET21b was treated for 1 h on ice with a native lysis buffer (Qproteome Bacterial Protein Prep Kit; Qiagen, Hilden). After a centrifugation step the supernatant was precipitated during 2 h stirring on ice with 0.23 g/ml of solid ammonium sulfate. Following further centrifugation the resulting pellet was resolved in buffer A (100 mM Tris, pH 7.5; 100 mM NaCl; 2 mM DTT) and was subsequently loaded onto a buffer A equilibrated CaptoCore 700 column (GE HealthCare, Frankfurt). The column flow through containing the assembled HBV capsid was dialyzed against buffer N (50 mM NaHCO3 pH 9.6; 5 mM DTT) before urea was added to a final concentration of 3M to dissociate the capsid into core dimers for 1.5 h on ice. The protein solution was then loaded onto a 1 L Sephacryl S300 column. After elution with buffer N core dimer containing fractions were identified by SDS-PAGE and subsequently pooled and dialyzed against 50 mM HEPES pH 7.5; 5 mM DTT. To improve the assembly capacity of the purified core dimers a second round of assembly and disassembly starting with the addition of 5 M NaCl and including the size exclusion chromatography steps described above was performed. From the last chromatography step core dimer containing fractions were pooled and stored in aliquots at concentrations between 1.5 to 2.0 mg/ml at −80° C.
Immediately before labelling the core protein was reduced by adding freshly prepared DTT in a final concentration of 20 mM. After 40 min incubation on ice storage buffer and DTT was removed using a Sephadex G-25 column (GE HealthCare, Frankfurt) and 50 mM HEPES, pH 7.5. For labelling 1.6 mg/ml core protein was incubated at 4° C. and darkness overnight with BODIPY-FL maleimide (Invitrogen, Karlsruhe) in a final concentration of 1 mM. After labelling the free dye was removed by an additional desalting step using a Sephadex G-25 column. Labelled core dimers were stored in aliquots at 4° C. In the dimeric state the fluorescence signal of the labelled core protein is high and is quenched during the assembly of the core dimers to high molecular capsid structures. The screening assay was performed in black 384 well microtiter plates in a total assay volume of 10 μl using 50 mM HEPES pH 7.5 and 1.0 to 2.0 μM labelled core protein. Each screening compound was added in 8 different concentrations using a 0.5 log-unit serial dilution starting at a final concentration of 100 μM, 31.6 μM or 10 μM. In any case the DMSO concentration over the entire microtiter plate was 0.5%. The assembly reaction was started by the injection of NaCl to a final concentration of […] which induces the assembly process to approximately 25% of the maximal quenched signal. 6 min after starting the reaction the fluorescence signal was measured using a Clariostar plate reader (BMG Labtech, Ortenberg) with an excitation of 477 nm and an emission of 525 nm. As 100% and 0% assembly control HEPES buffer containing 2.5 M and 0 M NaCl was used. Experiments were performed thrice in triplicates. EC50 values were calculated by non-linear regression analysis using the Graph Pad Prism 6 software (GraphPad Software, La Jolla, USA).

[1] = 144 h, HBV DNA in HepAD38 supernatant at day 6

Compound | EC50 (HBV; HePAD38, 144 h) | IC50 (HBV core protein) | EC50 (HBV; [1])
CC(C)OC(=O)[C@H](C)NP(=O)(OCC1(CNc2nc3c(s2)CN(C(=O)c2cc4c(F)cc(F)cc4[nH]2)CC3)CC1)Oc1ccccc1 (stereo partly drawn) [Example 37, Propan-2-yl (2S)-2-[({[1-({[5-(4,6-difluoro-1H-indole-2-carbonyl)-4H,5H,6H,7H-[1,3]thiazolo[5,4-c]pyridin-2-yl]amino}methyl)cyclopropyl]methoxy}(phenoxy)phosphoryl)amino]propanoate] | < 1 µM | < 100 µM | –
O=C(c1cc2ccccc2[nH]1)N1CCc2nc(CNC3CC3)sc2C1 [Example 38, N-{[5-(1H-indole-2-carbonyl)-4H,5H,6H,7H-[1,3]thiazolo[5,4-c]pyridin-2-yl]methyl}cyclopropanamine] | – | < 5 µM | < 1 µM
O=C(c1cc2ccccc2[nH]1)N1CCc2nc(CN3CCOCC3)sc2C1 [Example 39, 2-{2-[(morpholin-4-yl)methyl]-4H,5H,6H,7H-[1,3]thiazolo[5,4-c]pyridine-5-carbonyl}-1H-indole] | – | < 5 µM | < 1 µM
O=C(c1cc2ccccc2[nH]1)N1CCc2nc(CNC3CCOC3)sc2C1 (stereo not drawn) [Example 40, N-{[5-(1H-indole-2-carbonyl)-4H,5H,6H,7H-[1,3]thiazolo[5,4-c]pyridin-2-yl]methyl}oxolan-3-amine] | – | 5 to 10 µM | 1 to 10 µM
O=C(c1cc2ccccc2[nH]1)N1CCc2nc(CNCC3(CO)CC3)sc2C1 [Example 41, {1-[({[5-(1H-indole-2-carbonyl)-4H,5H,6H,7H-[1,3]thiazolo[5,4-c]pyridin-2-yl]methyl}amino)methyl]cyclopropyl}methanol] | – | < 100 µM | 1 to 10 µM
O=C(c1cc2ccccc2[nH]1)N1CCc2nc(NC3CC(CO)(CO)C3)sc2C1 [Example 42, [1-(hydroxymethyl)-3-{[5-(1H-indole-2-carbonyl)-4H,5H,6H,7H-[1,3]thiazolo[5,4-c]pyridin-2-yl]amino}cyclobutyl]methanol] | – | < 5 µM | < 1 µM
O=C(c1cc2ccccc2[nH]1)N1CCc2nc(NC(CO)CO)sc2C1 [Example 43, 2-{[5-(1H-indole-2-carbonyl)-4H,5H,6H,7H-[1,3]thiazolo[5,4-c]pyridin-2-yl]amino}propane-1,3-diol] | – | < 5 µM | < 1 µM
O=C(c1cc2ccccc2[nH]1)N1CCc2nc(NCC3(O)COC3)sc2C1 [Example 44, 3-({[5-(1H-indole-2-carbonyl)-4H,5H,6H,7H-[1,3]thiazolo[5,4-c]pyridin-2-yl]amino}methyl)oxetan-3-ol] | – | < 5 µM | < 1 µM
O=C(c1cc2ccccc2[nH]1)N1CCc2nc(N[C@H]3CC[C@@H](O)CC3)sc2C1 [Example 45, (1s,4s)-4-{[5-(1H-indole-2-carbonyl)-4H,5H,6H,7H-[1,3]thiazolo[5,4-c]pyridin-2-yl]amino}cyclohexan-1-ol] | – | < 5 µM | < 1 µM
O=C(c1cc2ccccc2[nH]1)N1CCc2nc(NCC3(O)CCC3)sc2C1 [Example 46, 1-({[5-(1H-indole-2-carbonyl)-4H,5H,6H,7H-[1,3]thiazolo[5,4-c]pyridin-2-yl]amino}methyl)cyclobutan-1-ol] | – | < 5 µM | < 1 µM
O=C(c1cc2ccccc2[nH]1)N1CCc2nc(N[C@H]3CCCC[C@@H]3O)sc2C1 [Example 47, (1S,2S)-2-{[5-(1H-indole-2-carbonyl)-4H,5H,6H,7H-[1,3]thiazolo[5,4-c]pyridin-2-yl]amino}cyclohexan-1-ol] | – | < 5 µM | < 1 µM
O=C(c1cc2ccccc2[nH]1)N1CCc2nc(NC3(CO)CCC3)sc2C1 [Example 48, (1-{[5-(1H-indole-2-carbonyl)-4H,5H,6H,7H-[1,3]thiazolo[5,4-c]pyridin-2-yl]amino}cyclobutyl)methanol] | – | < 5 µM | < 1 µM
CC1(CNc2nc3c(s2)CN(C(=O)c2cc4ccccc4[nH]2)CC3)CCOC1 (stereo not drawn) [Example 49, 5-(1H-indole-2-carbonyl)-N-[(3-methyloxolan-3-yl)methyl]-4H,5H,6H,7H-[1,3]thiazolo[5,4-c]pyridin-2-amine] | – | < 5 µM | < 1 µM
CC(=O)NNc1nc2c(s1)CN(C(=O)c1cc3ccccc3[nH]1)CC2 [Example 58, N′-[5-(1H-indole-2-carbonyl)-4H,5H,6H,7H-[1,3]thiazolo[5,4-c]pyridin-2-yl]acetohydrazide] | – | 5 to 10 µM | 1 to 10 µM
O=C(c1cc2c(F)ccc(F)c2[nH]1)N1CCc2nc(NCC3(CO)CC3)sc2C1 [Example 59, [1-({[5-(4,7-difluoro-1H-indole-2-carbonyl)-4H,5H,6H,7H-[1,3]thiazolo[5,4-c]pyridin-2-yl]amino}methyl)cyclopropyl]methanol] | – | < 5 µM | < 1 µM
O=C(c1cc2c(Cl)cc(F)cc2[nH]1)N1CCc2nc(NCC3(CO)CC3)sc2C1 [Example 60, [1-({[5-(4-chloro-6-fluoro-1H-indole-2-carbonyl)-4H,5H,6H,7H-[1,3]thiazolo[5,4-c]pyridin-2-yl]amino}methyl)cyclopropyl]methanol] | – | < 5 µM | < 1 µM
O=C(CC(F)(F)F)Nc1nc2c(s1)CN(C(=O)c1cc3ccccc3[nH]1)CC2 [Example 61, 3,3,3-trifluoro-N-[5-(1H-indole-2-carbonyl)-4H,5H,6H,7H-[1,3]thiazolo[5,4-c]pyridin-2-yl]propanamide] | – | 5 to 10 µM | < 1 µM
CN(C)CC(=O)Nc1nc2c(s1)CN(C(=O)c1cc3ccccc3[nH]1)CC2 [Example 62, 2-(dimethylamino)-N-[5-(1H-indole-2-carbonyl)-4H,5H,6H,7H-[1,3]thiazolo[5,4-c]pyridin-2-yl]acetamide] | – | 5 to 10 µM | < 1 µM
O=C(c1cc2c(Cl)cccc2[nH]1)N1CCc2nc(NCC3(CO)CC3)sc2C1 [Example 63, [1-({[5-(4-chloro-1H-indole-2-carbonyl)-4H,5H,6H,7H-[1,3]thiazolo[5,4-c]pyridin-2-yl]amino}methyl)cyclopropyl]methanol] | – | < 5 µM | < 1 µM
Cc1cccc2[nH]c(C(=O)N3CCc4nc(NCC5(CO)CC5)sc4C3)cc12 [Example 64, [1-({[5-(4-methyl-1H-indole-2-carbonyl)-4H,5H,6H,7H-[1,3]thiazolo[5,4-c]pyridin-2-yl]amino}methyl)cyclopropyl]methanol] | – | < 5 µM | < 1 µM
O=C(c1cc2ccccc2[nH]1)N1CCc2nc(NCC3COCCO3)sc2C1 (stereo not drawn) [Example 66, N-[(1,4-dioxan-2-yl)methyl]-5-(1H-indole-2-carbonyl)-4H,5H,6H,7H-[1,3]thiazolo[5,4-c]pyridin-2-amine] | – | < 5 µM | < 1 µM
O=C(c1cc2ccccc2[nH]1)N1CCc2nc(NC3CCC(O)CC3)sc2C1 (stereo not drawn) [Example 67, 4-{[5-(1H-indole-2-carbonyl)-4H,5H,6H,7H-[1,3]thiazolo[5,4-c]pyridin-2-yl]amino}cyclohexan-1-ol] | – | < 5 µM | < 1 µM
CC(C)(CO)Nc1nc2c(s1)CN(C(=O)c1cc3ccccc3[nH]1)CC2 [Example 68, 2-{[5-(1H-indole-2-carbonyl)-4H,5H,6H,7H-[1,3]thiazolo[5,4-c]pyridin-2-yl]amino}-2-methylpropan-1-ol] | – | < 5 µM | < 1 µM
CC1(Nc2nc3c(s2)CN(C(=O)c2cc4ccccc4[nH]2)CC3)CCOCC1 [Example 69, 5-(1H-indole-2-carbonyl)-N-(4-methyloxan-4-yl)-4H,5H,6H,7H-[1,3]thiazolo[5,4-c]pyridin-2-amine] | – | < 5 µM | < 1 µM
